Measurements: ChEMBL document CHEMBL2163249, “Exploration of natural compounds as sources of new bifunctional scaffolds targeting cholinesterases and beta amyloid aggregation: the case of chelerythrine” (Bioorg Med Chem, 2012)

How the values were obtained:
[1] = biological target: Acetylcholinesterase (Electrophorus electricus) (UniProt O42275); details: at 2 mg/mL
Description: Inhibition of electric eel AChE at 2 mg/ml by Ellman's method

[2] = biological target: Cholinesterase (Equus caballus) (UniProt P81908); details: at 2 mg/mL
Chain of Cholinesterase (Equus caballus) (P81908 whole entry): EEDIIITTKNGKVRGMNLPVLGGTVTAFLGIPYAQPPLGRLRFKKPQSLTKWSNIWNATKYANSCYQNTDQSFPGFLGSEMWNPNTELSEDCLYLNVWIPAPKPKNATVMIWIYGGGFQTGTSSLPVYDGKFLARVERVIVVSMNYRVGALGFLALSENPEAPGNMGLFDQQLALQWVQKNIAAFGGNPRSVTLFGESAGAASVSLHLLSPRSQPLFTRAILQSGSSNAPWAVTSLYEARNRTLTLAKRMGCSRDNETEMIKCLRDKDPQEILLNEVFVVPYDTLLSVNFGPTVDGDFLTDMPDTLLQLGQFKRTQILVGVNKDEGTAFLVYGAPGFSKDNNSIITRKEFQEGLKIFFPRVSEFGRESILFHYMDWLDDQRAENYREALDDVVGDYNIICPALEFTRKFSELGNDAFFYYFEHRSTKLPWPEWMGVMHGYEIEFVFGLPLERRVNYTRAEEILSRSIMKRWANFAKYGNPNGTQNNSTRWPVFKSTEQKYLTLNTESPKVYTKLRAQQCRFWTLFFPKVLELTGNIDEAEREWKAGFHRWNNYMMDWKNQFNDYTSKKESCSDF
Description: Inhibition of horse BChE at 2 mg/ml by Ellman's method

Chain of Acetylcholinesterase (Electrophorus electricus) (O42275 24-633 limits assumed): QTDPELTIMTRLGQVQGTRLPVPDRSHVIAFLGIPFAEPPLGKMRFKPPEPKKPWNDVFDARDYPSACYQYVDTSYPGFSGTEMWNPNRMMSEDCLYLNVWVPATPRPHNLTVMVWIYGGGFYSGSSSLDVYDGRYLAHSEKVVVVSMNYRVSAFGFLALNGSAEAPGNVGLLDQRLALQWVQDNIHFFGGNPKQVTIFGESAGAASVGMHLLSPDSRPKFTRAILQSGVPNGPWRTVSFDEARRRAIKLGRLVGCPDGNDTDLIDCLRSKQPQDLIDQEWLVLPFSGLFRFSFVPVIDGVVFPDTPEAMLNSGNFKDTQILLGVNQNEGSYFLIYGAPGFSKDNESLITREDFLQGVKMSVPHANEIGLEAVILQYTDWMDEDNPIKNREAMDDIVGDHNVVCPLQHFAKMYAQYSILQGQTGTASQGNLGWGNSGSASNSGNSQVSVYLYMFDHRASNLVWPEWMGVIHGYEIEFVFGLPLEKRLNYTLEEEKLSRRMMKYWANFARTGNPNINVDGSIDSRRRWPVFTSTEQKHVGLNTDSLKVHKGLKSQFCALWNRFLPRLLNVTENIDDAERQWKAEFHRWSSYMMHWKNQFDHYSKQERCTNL

| SMILES | inhibition [1] [%] | inhibition [2] [%] |
| --- | --- | --- |
| CN1c2ccccc2C(=O)N2CCc3c([nH]c4ccccc34)[C@@H]21 | 12.4 | 26 |
| CCC1=C[C@@H]2CN(C1)Cc1c([nH]c3ccccc13)[C@@](C(=O)OC)(c1cc3c(cc1OC)N(C)[C@H]1[C@@](O)(C(=O)OC)[C@H](OC(C)=O)[C@]4(CC)C=CCN5CC[C@]31[C@@H]54)C2 | -0.32 | 12.2 |
| CC[C@H](C)C(=O)O[C@H]1CCC=C2C=C[C@H](C)[C@H](CC[C@@H]3C[C@@H](O)CC(=O)O3)[C@H]21 | -9.46 | 7.39 |
| CC[C@H]1[C@@H]2C[C@H]3[C@@H]4N(C)c5ccccc5[C@]45C[C@@H]([C@@H]2[C@H]5O)N3[C@@H]1O | 29.8 | 22.3 |
| COc1ccc(C(=O)O[C@H]2CC[C@@]3(C)[C@@H]4CC[C@H]5[C@]6(O)C[C@H](O)[C@@]7(O)[C@@H](CN8C[C@@H](C)CC[C@H]8[C@@]7(C)O)[C@]6(O)C[C@@]53O[C@]24O)cc1OC | 21.8 | -4.13 |
| C[C@]12CC[C@H](O)C[C@H]1CC[C@@H]1[C@@H]2CC[C@]2(C)[C@@H](C3=CC(=O)OC3)[C@@H](O)C[C@]12O | -1.84 | 1.77 |
| C[C@@]12CCc3occc3[C@H]1CC[C@@]13C[C@@H](CC[C@H]12)[C@@](O)(CO)C3 | -1.43 | 13.8 |
| COc1ccc2cc1Oc1ccc(cc1)C[C@@H]1c3cc(c(OC)cc3CCN1C)Oc1c(OC)c(OC)cc3c1[C@H](C2)N(C)CC3 | -1.02 | 21.9 |
| CC[C@@H](C)C(=O)O[C@H]1[C@H](O)[C@H]2[C@@H](CN3C[C@@H](C)CC[C@H]3[C@@]2(C)O)[C@@H]2C[C@]34O[C@]5(O)[C@@H](OC(=O)[C@](C)(O)[C@@H](C)O)CC[C@@]3(C)[C@@H]5[C@@H](OC(C)=O)[C@@H](OC(C)=O)[C@H]4[C@@]21O | -5.22 | -0.35 |
| COc1cc2c(c3oc4cccc(O)c4c(=O)c13)[C@@H]1C=CO[C@@H]1O2 | 18.2 | -2.65 |
| O=c1c(-c2ccc(O)cc2)coc2cc(O)cc(O)c12 | 7.3 | 10.5 |
| COc1c2ccoc2cc2oc(C)cc(=O)c12 | 7 | 16.2 |
| COc1ccc(C(=O)OC2C[C@H]3CC[C@H](C2)N3C)cc1OC (stereo partly drawn) | 49.5 | 1 |
| O=C1/C(=C/c2ccc(O)c(O)c2)Oc2c1ccc(O[C@@H]1O[C@H](CO)[C@@H](O)[C@H](O)[C@H]1O)c2O | 22.4 | 3.06 |
| C[C@@H]1CC[C@H]2[C@@H](C)C(=O)O[C@@H]3O[C@@]4(C)CC[C@@H]1[C@]32OO4 | 2.43 | 35.6 |
| CN1[C@@H](CC(=O)c2ccccc2)CCC[C@H]1C[C@H](O)c1ccccc1 | -0.17 | 30.4 |
| CC1(C)CCC[C@](C)([C@H]2CC[C@]3(C)[C@@H]2[C@H](O)C[C@@H]2[C@@]4(C)CC[C@H](O)C(C)(C)[C@@H]4CC[C@]23C)O1 | 7.82 | 12.1 |
| CO[C@@]12[C@H](COC(N)=O)C3=C(C(=O)C(C)=C(N)C3=O)N1C[C@@H]1N[C@@H]12 | 4.01 | 3.34 |
| CC[C@@H](C)[C@@H](O)[C@H](C)C(=O)[C@H](C)/C=C(\C)C[C@H](C)[C@@H]1OC(=O)[C@H]1CC | 2.88 | 99.8 |
| C[C@H]1[C@H](C)CC[C@]2(C(=O)O)CC[C@]3(C)C(=CC[C@@H]4[C@@]5(C)C[C@@H](O)[C@H](O)[C@@](C)(CO)[C@@H]5CC[C@]43C)[C@H]12 | 3.99 | -8.64 |
| COc1ccc2c(c1)[nH]c1c(C)nccc12 | 50.9 | 12.1 |
| CN1[C@@H]2CC[C@H]1C[C@H](O)C2 | 1.27 | -9.24 |

| SMILES | inhibition [1] [%] | inhibition [2] [%] |
| --- | --- | --- |
| C[C@@H]1O[C@H](C[N+](C)(C)C)C[C@H]1O | -6.43 | -6.38 |
| COc1c2c(cc3c1OCO3)CCN(C)C2 | 9.58 | 29.9 |
| COc1cc(/C=C/C(=O)O)ccc1O | -1.29 | -0.02 |
| CC(=O)O[C@H]1[C@H]2[C@@H](OC(=O)Cc3ccccc3)[C@@H](C)C[C@]2(OC(C)=O)C(=O)/C(C)=C/[C@@H]2[C@H](CC[C@@]13CO3)C2(C)C | -2.46 | -5.46 |
| CC(C)C[C@H](NC(=O)[C@H]1O[C@@H]1C(=O)O)C(=O)NCCCCN=C(N)N | -7.43 | 12.1 |
| CC(C)(O)CC[C@@H](O)[C@](C)(O)[C@H]1CC[C@@]2(O)C3=CC(=O)[C@@H]4C[C@@H](O)[C@@H](O)C[C@]4(C)[C@H]3CC[C@]12C | 3.26 | -3.01 |
| CC(C)=CCC/C(C)=C/COc1ccc2ccc(=O)oc2c1 | -3.79 | 1.5 |
| C[C@H]1COC2=C1C(=O)C(=O)c1c2ccc2c1CCCC2(C)C | 3.33 | 12.1 |
| Cc1cc(=O)oc2cc(O)ccc12 | 4.46 | 0.88 |
| O=C(O)/C=C/c1ccc(O)c(O)c1 | 2.2 | 0.67 |
| COc1cc(-c2oc3cc(O)cc(O)c3c(=O)c2OC2O[C@H](CO[C@@H]3O[C@@H](C)[C@H](O)[C@@H](O)[C@H]3O)[C@@H](O)[C@H](O)[C@H]2O)ccc1O (stereo partly drawn) | 24.8 | 0.75 |
| CC(C)(O)[C@@H]1[C@H]2OC(=O)[C@@H]1[C@]1(O)C[C@H]3O[C@]34C(=O)O[C@H]2[C@]14C | 22.6 | 1.96 |
| O=c1oc2cc(O)ccc2c2oc3cc(O)ccc3c12 | 3.18 | 9.06 |
| O=c1c(-c2ccc(O)cc2)coc2cc(O[C@@H]3O[C@H](CO)[C@@H](O)[C@H](O)[C@H]3O)ccc12 | 17.6 | -0.76 |
| O=c1oc2ccccc2c(O)c1Cc1c(O)c2ccccc2oc1=O | 12.3 | 5.48 |
| COC(=O)C[C@](O)(CCC(C)(C)O)C(=O)O[C@@H]1C(OC)=C[C@]23CCCN2CCc2cc4c(cc2[C@H]13)OCO4 | -5.71 | 1.48 |
| COc1ccc2cc1Oc1ccc(cc1)C[C@H]1c3c(cc4c(c3Oc3cc5c(cc3OC)CCN(C)[C@@H]5C2)OCO4)CCN1C | 8.59 | 40.6 |
| OC[C@H]1O[C@@H](Oc2ccc(O)cc2)[C@H](O)[C@@H](O)[C@@H]1O | 9.16 | 6.63 |
| C/C=C1\CN2CC[C@]34C(=C(CC=O)[C@H]1C[C@H]23)Nc1ccccc14 | 21.1 | 12 |
| Cn1c(-c2ccc3c(c2)OCO3)cc(=O)c2ccccc21 | 31.1 | 9.48 |
| CO[C@@H]1C[C@@H](C[C@H]2CC[C@H](C)[C@H]([C@@H](C)C(=O)O)O2)O[C@]2(O[C@](C)([C@H]3CC[C@@](C)([C@@H]4O[C@@H]([C@H]5O[C@@](O)(CO)[C@H](C)C[C@@H]5C)C[C@@H]4C)O3)C[C@H]2C)[C@@H]1C | -7.25 | 4.98 |
| CN1CCc2cc3c(cc2C(=O)Cc2ccc4c(c2C1)OCO4)OCO3 | 31.1 | 7.56 |

| SMILES | inhibition [1] [%] | inhibition [2] [%] |
| --- | --- | --- |
| CCCCC[C@H](O)/C=C/C1=C(CCCCCCC(=O)O)C(=O)CC1 | 15.6 | -1.44 |
| CO[C@H](C)[C@](O)(C(=O)OCC1=CCN2CC[C@H](O)[C@@H]12)C(C)C | 21.3 | 1.48 |
| C/C=C(/C)C(=O)O[C@H]1CC[C@@]2(C)[C@@H]3CC[C@H]4[C@]5(O)C[C@H](O)[C@@]6(O)[C@@H](CN7C[C@@H](C)CC[C@H]7[C@@]6(C)O)[C@]5(O)C[C@@]42O[C@]13O | -3.72 | 6.44 |
| C/C=C/C/C=C/CCC(=O)[C@H]1O[C@H]1C(N)=O | -4.02 | 3.38 |
| COc1ccc2cc1Oc1ccc(cc1)C[C@H]1c3cc(c(OC)cc3CCN1C)Oc1c(OC)c(OC)c(OC)c3c1[C@H](C2)N(C)CC3 | 23.4 | -7.66 |
| CC1=C(/C=C/C(C)=C/C=C/C(C)=C\C(=O)O)C(C)(C)CCC1 | 11.5 | 0.91 |
| O=C1C[C@@H]2OCC=C3CN4CC[C@]56c7ccccc7N1[C@H]5[C@H]2[C@H]3C[C@H]46 | 12.2 | 32.4 |
| COc1c2occc2c(OC)c2c(=O)cc(C)oc12 | 7.57 | 3.3 |
| CC(C)[C@@]1(NC(=O)[C@@H]2C[C@@H]3c4cccc5[nH]cc(c45)C[C@H]3N(C)C2)O[C@@]2(O)[C@@H]3CCCN3C(=O)[C@H](Cc3ccccc3)N2C1=O | -1.54 | 0.35 |
| O=c1c(O[C@@H]2O[C@H](CO)[C@@H](O)[C@H](O)[C@H]2O)c(-c2ccc(O)c(O)c2)oc2cc(O)cc(O)c12 | 0.12 | 2.54 |
| C=C(C)[C@H]1CN[C@H](C(=O)O)[C@H]1CC(=O)O | -5.89 | 4.53 |
| C[C@H]1CC[C@@H]2[C@@H](C)[C@H]3[C@H](C[C@H]4[C@@H]5CC=C6C[C@@H](O[C@@H]7O[C@H](CO)[C@H](O)[C@H](O[C@@H]8O[C@H](CO)[C@@H](O)[C@H](O)[C@H]8O)[C@H]7O[C@@H]7O[C@@H](C)[C@H](O)[C@@H](O)[C@H]7O)CC[C@]6(C)[C@H]5CC[C@]34C)N2C1 | 9.15 | 12.2 |
| Oc1cc(O)c2c(c1)O[C@H](c1ccc(O)c(O)c1)[C@H](O)C2 | -4.81 | 0.47 |
| O=c1cc(-c2ccc(O)c(O)c2)oc2cc(O)c([C@@H]3O[C@H](CO)[C@@H](O)[C@H](O)[C@H]3O)c(O)c12 | 23.9 | -4.72 |
| COc1cc(C(=O)O[C@H]2C[C@@H]3CC[C@]2(C)C3(C)C)ccc1O | 25.2 | 1.44 |
| C=CCc1ccc(O)c(-c2cc(CC=C)ccc2O)c1 | -2.45 | 0.25 |
| O=C1C[C@@H](c2ccc(O)cc2)Oc2cc(O[C@@H]3O[C@H](CO)[C@@H](O)[C@H](O)[C@H]3O)cc(O)c21 | 18.7 | -1.72 |
| COc1cc2oc(=O)ccc2cc1O | 28.1 | 3.87 |
| COc1c(O)cc2c(c1O)[C@@H]1O[C@H](CO)[C@@H](O)[C@H](O)[C@H]1OC2=O | 7.33 | -0.62 |
| COc1cc2c(c(OC)c1OC)-c1c(cc(OC)c(OC)c1OC)C[C@H](C)[C@H](C)C2 | -1.7 | -4.82 |
